Test results from the supplement of paper PMC10627819.

Columns and labels:
[1] = test system: B. subtilis 168; experiment: fitness (endpoint OD595 vs no drug) (fraction); higher = more growth
In short: (§1)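 Fitness was defined as the optical density at the transition into stationary phase relative to the robust mean of no-drug control wells. Values were capped at 1. Cultures were started at OD595 0.01 in 384-well plates (30 µl, or 55 µl for S. pneumoniae) in TSB, LB Lennox or CY at 37 °C. OD595 was recorded every 30 min over 14 h, with the first reading subtracted as background.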

[2] = test system: S. aureus DSM 20231; experiment: as above
In short: as §1

[3] = test system: S. aureus Newman; experiment: as above
In short: as §1

[4] = test system: S. pneumoniae D39V; experiment: as above
In short: as §1

[5] = test system: B. subtilis 168; experiment: Bliss interaction score (quartile over a dose matrix) (fitness difference); higher = more antagonism (negative = synergy)
In short: (§2)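 OD595 was read at entry into stationary phase and expressed relative to the robust mean of the no-drug wells on the same plate, capped at 1. The resulting ratio is the fitness value. The Bliss score, observed fitness minus product-based expected fitness with single-drug fitness inferred from combinations, is summarised by quartiles over technical, biological and donor/recipient replicates.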

[6] = test system: S. aureus DSM 20231; experiment: as above
In short: as §2

[7] = test system: S. aureus Newman; experiment: as above
In short: as §2

[8] = test system: S. pneumoniae D39V; experiment: as above
In short: as §2
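Wherever Bliss interaction score (quartile over a dose matrix) is given: first quartile when negative (synergy) and third quartile when positive (antagonism).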

CO/N=C(\C(=O)N[C@@H]1C(=O)N2C(C(=O)O)=C(COC(C)=O)CS[C@H]12)c1csc(N)n1 [Cefotaxime] + CN(N=O)C(=O)N[C@@H](C=O)[C@@H](O)[C@H](O)[C@H](O)CO [Streptozotocin]
fitness, one replicate
Details	partner 0.15 µg/mL	partner 0.3 µg/mL	partner 0.6 µg/mL
[1], first compound 0.00775 µg/mL	0.767	0.832	0.787
[1], first compound 0.0155 µg/mL	0.721	0.743	0.715
[1], first compound 0.031 µg/mL	0.526	0.518	0.502
[1], first compound 0.5 µg/mL	0.34	0.342	0.347
[1], first compound 1 µg/mL	0.132	0.136	0.146
[1], first compound 2 µg/mL	0.0874	0.126	0.183
[2], first compound 0.039 µg/mL	0.756	0.675	0.551
[3], first compound 0.625 µg/mL	0.0252	0.0161	0
[3], first compound 1.25 µg/mL	0.023	0.0017	0
[3], first compound 2.5 µg/mL	0.0355	0.0302	0

fitness
Details	first compound 0.0018 µg/mL	first compound 0.0035 µg/mL	first compound 0.007 µg/mL	first compound 0.078 µg/mL	first compound 0.156 µg/mL	first compound 0.312 µg/mL
[2], partner 0.15 µg/mL	–	–	–	0.691	0.653	0.609
[2], partner 0.3 µg/mL	–	–	–	0.612	0.617	0.614
[2], partner 0.6 µg/mL	–	–	–	0.552	0.564	0.521
[3], partner 0.15 µg/mL	–	–	–	0.641	0.476	0.253
[3], partner 0.3 µg/mL	–	–	–	0.539	0.389	0.133
[3], partner 0.6 µg/mL	–	–	–	0.403	0.204	0.0516
[4], partner 1.2 µg/mL	0.957	0.963	0.889	–	–	–
[4], partner 2.4 µg/mL	0.97	0.964	0.775	–	–	–
[4], partner 4.8 µg/mL	0.978	0.938	0.861	–	–	–

Details	Bliss interaction score
[5]	0.0848
[6]	-0.0448
[7]	-0.0599
[8]	0.0325

CO/N=C(\C(=O)N[C@@H]1C(=O)N2C(C(=O)O)=C(COC(C)=O)CS[C@H]12)c1csc(N)n1 [Cefotaxime] + CN[C@@H]1[C@H](O)[C@H](NC)[C@H]2O[C@@]3(O)C(=O)C[C@@H](C)O[C@H]3O[C@@H]2[C@H]1O [Spectinomycin]
one replicate
Details	fitness
[1], first compound 0.00775 µg/mL, partner 2 µg/mL	0.794
[1], first compound 0.00775 µg/mL, partner 4 µg/mL	0.796
[1], first compound 0.00775 µg/mL, partner 8 µg/mL	0.816
[1], first compound 0.0155 µg/mL, partner 2 µg/mL	0.671
[1], first compound 0.0155 µg/mL, partner 4 µg/mL	0.748
[1], first compound 0.0155 µg/mL, partner 8 µg/mL	0.571
[1], first compound 0.031 µg/mL, partner 2 µg/mL	0.521
[1], first compound 0.031 µg/mL, partner 4 µg/mL	0.519
[1], first compound 0.031 µg/mL, partner 8 µg/mL	0.258
[2], first compound 0.039 µg/mL, partner 4 µg/mL	0.72
[2], first compound 0.039 µg/mL, partner 8 µg/mL	0.747
[2], first compound 0.039 µg/mL, partner 16 µg/mL	0.707
[2], first compound 0.078 µg/mL, partner 32 µg/mL	0.597
[2], first compound 0.078 µg/mL, partner 64 µg/mL	0.0453
[2], first compound 0.156 µg/mL, partner 32 µg/mL	0.632
[2], first compound 0.156 µg/mL, partner 64 µg/mL	0.0727
[2], first compound 0.312 µg/mL, partner 32 µg/mL	0.583
[2], first compound 0.312 µg/mL, partner 64 µg/mL	0.0287
[3], first compound 0.078 µg/mL, partner 32 µg/mL	0.328
[3], first compound 0.078 µg/mL, partner 64 µg/mL	0.0751
[3], first compound 0.156 µg/mL, partner 32 µg/mL	0.0776
[3], first compound 0.156 µg/mL, partner 64 µg/mL	0.0848
[3], first compound 0.312 µg/mL, partner 32 µg/mL	0.0307
[3], first compound 0.312 µg/mL, partner 64 µg/mL	0.0805
[3], first compound 0.625 µg/mL, partner 4 µg/mL	0.0066
[3], first compound 0.625 µg/mL, partner 8 µg/mL	0.0296
[3], first compound 0.625 µg/mL, partner 16 µg/mL	0.021
[3], first compound 1.25 µg/mL, partner 4 µg/mL	0.0276
[3], first compound 1.25 µg/mL, partner 8 µg/mL	0.0141
[3], first compound 1.25 µg/mL, partner 16 µg/mL	0.0089
[3], first compound 2.5 µg/mL, partner 4 µg/mL	0.0608
[3], first compound 2.5 µg/mL, partner 8 µg/mL	0.0355
[3], first compound 2.5 µg/mL, partner 16 µg/mL	0.0355

fitness
Details	partner 2 µg/mL	partner 4 µg/mL	partner 8 µg/mL	partner 16 µg/mL
[1], first compound 0.5 µg/mL	0.234	0.139	0.0989	–
[1], first compound 1 µg/mL	0.11	0.0503	0.0323	–
[1], first compound 2 µg/mL	0.0973	0.0906	0.091	–
[2], first compound 0.078 µg/mL	–	0.791	0.747	0.714
[2], first compound 0.156 µg/mL	–	0.704	0.754	0.711
[2], first compound 0.312 µg/mL	–	0.68	0.694	0.596
[3], first compound 0.078 µg/mL	–	0.697	0.716	0.686
[3], first compound 0.156 µg/mL	–	0.582	0.59	0.503
[3], first compound 0.312 µg/mL	–	0.272	0.201	0.0958
[4], first compound 0.0018 µg/mL	–	0.985	0.944	0.9
[4], first compound 0.0035 µg/mL	–	0.97	0.944	0.847
[4], first compound 0.007 µg/mL	–	0.834	0.852	0.8

Details	Bliss interaction score
[5]	-0.0623
[6]	0.0658
[7]	-0.0972
[8]	0.108

CO/N=C(\C(=O)N[C@@H]1C(=O)N2C(C(=O)O)=C(COC(C)=O)CS[C@H]12)c1csc(N)n1 [Cefotaxime] + COc1ccc(C[C@H](N)C(=O)N[C@H]2[C@@H](O)[C@H](n3cnc4c(N(C)C)ncnc43)O[C@@H]2CO)cc1 [Puromycin]
fitness, one replicate
Details	partner 0.39 µg/mL	partner 0.78 µg/mL	partner 1.56 µg/mL	partner 3.12 µg/mL	partner 6.24 µg/mL
[1], first compound 0.00775 µg/mL	0.887	0.903	0.816	–	–
[1], first compound 0.0155 µg/mL	0.71	0.726	0.668	–	–
[1], first compound 0.031 µg/mL	0.558	0.574	0.616	–	–
[2], first compound 0.039 µg/mL	0.811	0.79	0.806	–	–
[2], first compound 0.078 µg/mL	–	–	–	0.895	0.653
[2], first compound 0.156 µg/mL	–	–	–	0.841	0.646
[2], first compound 0.312 µg/mL	–	–	–	0.808	0.417
[3], first compound 0.039 µg/mL	0.734	0.771	0.719	–	–
[3], first compound 0.625 µg/mL	0.0309	0.0612	0.0601	–	–
[3], first compound 1.25 µg/mL	0.0598	0.0843	0.0641	–	–
[3], first compound 2.5 µg/mL	0.0418	0.0601	0.0425	–	–

fitness
Details	partner 0.39 µg/mL	partner 0.78 µg/mL	partner 1 µg/mL	partner 1.56 µg/mL	partner 2 µg/mL	partner 4 µg/mL
[1], first compound 0.5 µg/mL	0.267	0.284	–	0.312	–	–
[1], first compound 1 µg/mL	0.144	0.147	–	0.169	–	–
[1], first compound 2 µg/mL	0.113	0.125	–	0.147	–	–
[2], first compound 0.078 µg/mL	0.748	0.774	–	0.833	–	–
[2], first compound 0.156 µg/mL	0.72	0.781	–	0.796	–	–
[2], first compound 0.312 µg/mL	0.644	0.689	–	0.712	–	–
[3], first compound 0.078 µg/mL	0.739	0.729	–	0.782	–	–
[3], first compound 0.156 µg/mL	0.633	0.698	–	0.702	–	–
[3], first compound 0.312 µg/mL	0.408	0.456	–	0.437	–	–
[4], first compound 0.0018 µg/mL	–	–	0.973	–	≥ 1	0.885
[4], first compound 0.0035 µg/mL	–	–	0.931	–	0.975	0.766
[4], first compound 0.007 µg/mL	–	–	0.93	–	0.919	0.662

Details	Bliss interaction score
[5]	0.104
[6]	0.0471
[7]	0.0762
[8]	0.11
